What was measured:
[1] = target: KRAS^G12D-FMe.RAF1^RBDCRD complex (Homo sapiens, UniProt P01116, G12D); assay: SHG assay: binding to bilayer-tethered KRAS G12D/RAF1 complex; details: GppNHp-loaded complex on PS bilayer; compound 0.027-40 μM, monitored over 60 min
Protocol: Compounds suspected to carry intrinsic SHG activity were tested in the presence of an unlabeled KRAS^G12D-FMe.RAF1^RBDCRD complex to monitor binding. PS bilayer was prepared from PS-enriched small unilamellar vesicles (SUVs) purchased from Biodesy, Inc. The concentrated SUVs were diluted in TBS buffer containing 5 mM CaCl2 and incubated on a glass-bottom 384-well Biodesy Delta™ assay plate to allow bilayer formation. Equimolar amounts of GppNHp-loaded KRAS^G12D-FMe and RAF1^RBDCRD were mixed and incubated together on PS bilayer overnight at 4° C. The following day, untethered protein was removed by washing with assay buffer (20 mM Hepes, pH 7.4, […], 1 mM TCEP, 5 μM GppNHp). The SHG signal produced by bilayer-tethered complex was ready using the Biodesy Delta™ platform where each well was pulsed with an 800 nm laser and the resulting second harmonic signal intensity at 400 nm was collected. Compounds were diluted into the same assay buffer and applied to the complex at a final concentration range spanning 0.027 μM-40 μM and the SHG intensity of each well was monitored at 5 minute intervals over a 60 minute time period.

[2] = system: pERK (ERK phospho-T202/Y204) in SW-480 cells; assay: pERK inhibition in SW-480 cell line (HTRF); assay type: cell-based; details: Homo sapiens, SW480, 1 hour incubation with compound
Protocol: SW-480 cells were cultured in Leibovitz's L15 (Gibco Cat. No. 11415064), supplemented with 10% fetal bovine serum (Gibco, Cat. No. 1993708), and 1% penicillin and streptomycin. Cells were grown at 37° C., under atmospheric conditions without additional CO2. Cells were seeded into a 96-well tissue-culture treated plate (Greiner, Cat. No. 655180) at a density of 30,000 cell per well, and allowed to adhere for 16 hours before the media was removed, and cells were treated with compounds diluted into culture media at the indicated concentrations. After 1 hour of incubation in the presence of compound, cells were harvested to measure pERK levels using the lysis buffer supplied with the Homogenous Time Resolved Fluorescence pERK kit (HTRF, Cisbio Advance ERK phospho-T202/Y204, Cat. No. 64AERPEG). Lysates were transferred to a 384-well low-volume white plate (PerkinElmer, Cat. No. 6008280) and then treated with the detection reagents supplied by the HTRF kit, according to the “2-plate” protocol supplied by the manufacturer, and incubated for 4-hours at ambient temperature in darkness. Assay plates were read at two fluorescent wavelengths (665 nm and 620 nm) using an Envision plate reader (Perkin Elmer) and data was processed and fitted to a 4-parameter logistic model using Graphpad Prism 8.0 to calculate IC50 values.

[3] = system: Phospho-ERK (Thr202/Tyr204) in MiaPaCa-2 cells; assay: pERK inhibition in MiaPaca-2 cell line (HTRF); assay type: cell-based; details: Homo sapiens, MIA PaCa-2, 1 hour incubation with compound
Protocol: MiaPaCa-2 cells (ATCC CRL-1420) were cultured in high glucose DMEM (Gibco 11965092) containing 10% fetal bovine serum (Gibco 1993708) and 1× Penicillin/Streptomycin, at 37° C. in a humid atmosphere of 5% CO2 in the air. Cells were plated in tissue-culture treated 96-well plates at a density of 10,000 cells/well and allowed to attach for 16 hours. The medium was then removed, and diluted compounds were added in a final concentration of 0.5% DMSO. After 1 hour of incubation, cells were lysed by the lysis buffer supplied with the Phospho-ERK (Thr202/Tyr204) cellular HTRF kit (Cisbio 64ERKPEH) and transferred to a 384-well low-volume white plate (PerkinElmer 6008280). The cell lysates were treated with the detection reagents supplied with the HTRF kit for 4 hours at ambient temperature in darkness. Two fluorescence intensities at the wavelengths (665 and 620 nm) were measured by the Envision plate reader (Perkin Elmer), and the data were processed and fitted to a 4-parameter logistic model for IC50 calculation (GraphPad Prism 9).

Compound	EC50 [1]	IC50 [2]	IC50 [3]
Cc1ccc(-c2ncc(CNC(=O)C3(C#N)CC3)c(N3CCC(CN)C3)n2)cc1Cl (centres unmarked) [Compound 41]	1 to 10 µM	1 to 10 µM	0.1 to 1 µM
Cc1ccc(-c2ncc(CNC(=O)C3(F)CC3)c(N3C[C@@H]4[C@@H](N)[C@@H]4C3)n2)cc1Cl [Compound 84]	1 to 10 µM	1 to 10 µM	1 to 10 µM
Cc1ccc(-c2ncc(CNC(=O)C3(C#N)CC3)c(N3CC[C@H](CN)C3)n2)cc1Cl [Compound 73]	1 to 10 µM	0.1 to 1 µM	0.1 to 1 µM
N#CC1(C(=O)NCc2cnc(-c3ccc(Cl)c(C(F)(F)F)c3)nc2N2CCC(CN)C2)CC1 (centres unmarked) [Compound 5, N-[[4-[3-(aminomethyl)pyrrolidin-1-yl]-2-[4-chloro-3-(trifluoromethyl)phenyl]pyrimidin-5-yl]methyl]-1-cyano-cyclopropanecarboxamide]	1 to 10 µM	1 to 10 µM	1 to 10 µM
Cc1ccc(-c2ncc(NS(=O)(=O)c3ccccc3)c(N3CCC(CN)C3)n2)cc1Cl (centres unmarked) [Compound 112]	1 to 10 µM	1 to 10 µM	1 to 10 µM
Cc1ccc(-c2ncc(CNC(=O)C3(C#N)CCC3)c(N3CCC(CN)C3)n2)cc1Cl (centres unmarked) [Compound 87]	1 to 10 µM	1 to 10 µM	1 to 10 µM
Cc1ccc(-c2ncc(CNC(=O)C3(C#N)CC3)c(N3CCC(N)CC3)n2)cc1Cl [Compound 67]	1 to 10 µM	1 to 10 µM	0.1 to 1 µM
Cc1ccc(-c2ncc(CNC(=O)C3(F)CC3)c(N3CCN(C)CC3)n2)cc1Cl [Compound 83]	10 to 50 µM	10 to 50 µM	1 to 10 µM
Cc1cc(-c2ncc(CNC(=O)C3(C#N)CC3)c(N3CCC(CN)C3)n2)ccc1Cl (centres unmarked) [Compound 52]	10 to 50 µM	1 to 10 µM	1 to 10 µM
Cc1ccc(-c2ncc(CNC(=O)C3(F)CC3)c(N3CCC(CN)C3)n2)cc1Cl (centres unmarked) [Compound 59]	1 to 10 µM	1 to 10 µM	1 to 10 µM
N#CC1(C(=O)NCc2cnc(-c3ccc4c(c3)CCC4)nc2N2CCC(CN)C2)CC1 (centres unmarked) [Compound 104]	10 to 50 µM	1 to 10 µM	0.1 to 1 µM
Cc1ccc(-c2ncc(CNC(=O)C3(F)CC3)c(N3CC[C@@H](CN)C3)n2)cc1Cl [Compound 72]		1 to 10 µM	1 to 10 µM
N#CC1(C(=O)NCc2cnc(-c3ccc(Cl)c(C(F)F)c3)nc2N2CCC(CN)C2)CC1 (centres unmarked) [Compound 57]	10 to 50 µM	1 to 10 µM	1 to 10 µM
Cc1ccc(-c2ncc(CNC(=O)C3(CO)CC3)c(N3CCC(CN)C3)n2)cc1Cl (centres unmarked) [Compound 105]	10 to 50 µM	1 to 10 µM	0.1 to 1 µM
Cc1ccc(-c2ncc(CNC(=O)C3(C#N)CC3)c(N3CC[C@@H](CN)C3)n2)cc1Cl [Compound 62]	1 to 10 µM	1 to 10 µM	0.1 to 1 µM
Cc1ccc(-c2ncc(CNC(=O)C3(F)CC3)c(N3CCNCC3)n2)cc1Cl [Compound 91]	1 to 10 µM	1 to 10 µM	1 to 10 µM
Cc1ccc(-c2ncc(CNC(=O)C3(F)CC3)c(OC3CCN(C)C3)n2)cc1Cl (centres unmarked) [Compound 89]	10 to 50 µM		1 to 10 µM
N#CC1(C(=O)NCc2cnc(-c3ccc(Cl)c(C(F)(F)F)c3)nc2OCCCN)CC1 [Compound 74]	1 to 10 µM		1 to 10 µM
NCC1CCN(c2nc(-c3ccc(C(F)(F)F)c(Cl)c3)ncc2N2CCCC2=O)C1 (centres unmarked) [Compound 90, 1-[4-[3-(aminomethyl)pyrrolidin-1-yl]-2-[3-chloro-4-(trifluoromethyl)phenyl]pyrimidin-5-yl]pyrrolidin-2-one]	1 to 10 µM	1 to 10 µM	1 to 10 µM
N#CC1(C(=O)NCc2cnc(-c3ccc(C(F)(F)F)cc3F)nc2N2CCC(CN)C2)CC1 (centres unmarked) [Compound 28]	10 to 50 µM		1 to 10 µM
Cc1ccc(-c2ncc(CNC(=O)C3(C#N)CC3)c(N3CCC[C@H]3CN)n2)cc1Cl [Compound 68]	10 to 50 µM		1 to 10 µM
Cc1ccc(-c2ncc(CN3CCN(C)C3=O)c(N3CCC(CN)C3)n2)cc1Cl (centres unmarked) [Compound 120]	10 to 50 µM		1 to 10 µM
NCC1CCN(c2nc(-c3ccc(C(F)(F)F)cc3F)ncc2CNC(=O)Nc2ccccc2)C1 (centres unmarked) [Compound 19, 1-[[4-[3-(aminomethyl)pyrrolidin-1-yl]-2-[2-fluoro-4-(trifluoromethyl)phenyl]pyrimidin-5-yl]methyl]-3-phenyl-urea]	1 to 10 µM		1 to 10 µM
C=C(C)C(=O)NCc1cnc(-c2ccc(C)c(Cl)c2)nc1N1CCC(CN)C1 (centres unmarked) [Compound 88]	1 to 10 µM		1 to 10 µM
N#CC1(C(=O)NCc2cnc(-c3ccc(Cl)c(C(F)(F)F)c3)nc2OCCN)CC1 [Compound 46]	1 to 10 µM		1 to 10 µM
Cc1ccc(-c2ncc(CNC(=O)C3(O)CC3)c(N3CCC(CN)C3)n2)cc1Cl (centres unmarked) [Compound 96]	1 to 10 µM		1 to 10 µM

Reference: patent US20240327356A1, “PYRIMIDINE BASED RAS MODULATORS AND USES THEREOF” (QUANTA THERAPEUTICS, INC., priority 2021, published 2024)
